Results published in PubChem BioAssay AID2060882 (Molecular Pharmacology Branch, DTP, NCI, 2025).

Tested on: 898857-211-R-J1-PDC complex spheroids, growth % test/control
Test: Anticancer human tumor 898857-211-R-J1-PDC patient-derived melanoma cell line growth inhibition [RAS]
Settings: for IC50: curve of first compound; for viability, T/C: stronger effect = lower value
How it was run: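 Agents were tested in combination matrices in half-log decrements from a top concentration at or near clinical Cmax (10 microM if undetermined). Targets were multi-cell spheroids of tumour lines plus HUVEC and MSC stromal cells.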
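Also: spheroids exposed to compound for seven days before readout.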
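For viability, T/C in this document: 100% = DMSO vehicle control wells.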

CC(=O)OC12COC1CC(O)C1(C)C(=O)C(O)C3=C(C)C(OC(=O)C(O)C(NC(=O)OC(C)(C)C)c4ccccc4)CC(O)(C(OC(=O)c4ccccc4)C21)C3(C)C (centres undefined) + C=CC(=O)N1CCN(c2nc(OCC3CCCN3C)nc3c(F)c(-c4nc(N)cc(C)c4C(F)(F)F)c(Cl)cc23)C(C)C1
IC50 (second compound 0.00316 µM): < 31.6 nM | IC50 (second compound 0.01 µM): < 31.6 nM | IC50 (second compound 0.0316 µM): < 31.6 nM | IC50 (second compound 0.1 µM): < 31.6 nM | IC50 (second compound 0.316 µM): < 31.6 nM | IC50 (second compound 1 µM): < 31.6 nM | viability, T/C (second compound 0.00316 µM, first compound 0.0316 µM): 12.3% | viability, T/C (second compound 0.00316 µM, first compound 0.1 µM): 15.6% | viability, T/C (second compound 0.00316 µM, first compound 0.316 µM): 14.2% | viability, T/C (second compound 0.00316 µM, first compound 1 µM): 15.5% | viability, T/C (second compound 0.00316 µM, first compound 3.16 µM): 21.2% | viability, T/C (second compound 0.00316 µM, first compound 10 µM): 20.4% | viability, T/C (second compound 0.01 µM, first compound 0.0316 µM): 12% | viability, T/C (second compound 0.01 µM, first compound 0.1 µM): 13.7% | viability, T/C (second compound 0.01 µM, first compound 0.316 µM): 10.5% | viability, T/C (second compound 0.01 µM, first compound 1 µM): 14.5% | viability, T/C (second compound 0.01 µM, first compound 3.16 µM): 21.1% | viability, T/C (second compound 0.01 µM, first compound 10 µM): 19.6% | viability, T/C (second compound 0.0316 µM, first compound 0.0316 µM): 13.1% | viability, T/C (second compound 0.0316 µM, first compound 0.1 µM): 13.1% | viability, T/C (second compound 0.0316 µM, first compound 0.316 µM): 14.3% | viability, T/C (second compound 0.0316 µM, first compound 1 µM): 14.8% | viability, T/C (second compound 0.0316 µM, first compound 3.16 µM): 24.2% | viability, T/C (second compound 0.0316 µM, first compound 10 µM): 20% | viability, T/C (second compound 0.1 µM, first compound 0.0316 µM): 11.5% | viability, T/C (second compound 0.1 µM, first compound 0.1 µM): 15.1% | viability, T/C (second compound 0.1 µM, first compound 0.316 µM): 14.3% | viability, T/C (second compound 0.1 µM, first compound 1 µM): 16.5% | viability, T/C (second compound 0.1 µM, first compound 3.16 µM): 16.2% | viability, T/C (second compound 0.1 µM, first compound 10 µM): 19.9% | viability, T/C (second compound 0.316 µM, first compound 0.0316 µM): 12.8% | viability, T/C (second compound 0.316 µM, first compound 0.1 µM): 15.5% | viability, T/C (second compound 0.316 µM, first compound 0.316 µM): 14.2% | viability, T/C (second compound 0.316 µM, first compound 1 µM): 16.9% | viability, T/C (second compound 0.316 µM, first compound 3.16 µM): 14.7% | viability, T/C (second compound 0.316 µM, first compound 10 µM): 21.1% | viability, T/C (second compound 1 µM, first compound 0.0316 µM): 12% | viability, T/C (second compound 1 µM, first compound 0.1 µM): 13.3% | viability, T/C (second compound 1 µM, first compound 0.316 µM): 12.1% | viability, T/C (second compound 1 µM, first compound 1 µM): 15.4% | viability, T/C (second compound 1 µM, first compound 3.16 µM): 19.4% | viability, T/C (second compound 1 µM, first compound 10 µM): 15.2%

CC1(C)CCC(Nc2ncc(C(F)(F)F)c(-c3c[nH]c4c(P(C)(C)=O)c(C#N)ccc34)n2)CN1 (centres undefined) + C=CC(=O)N1CCN(c2nc(OCC3CCCN3C)nc3c(F)c(-c4nc(N)cc(C)c4C(F)(F)F)c(Cl)cc23)C(C)C1
IC50 (second compound 0.00316 µM): 5.36 nM | IC50 (second compound 0.01 µM): 5.18 nM | IC50 (second compound 0.0316 µM): 4.69 nM | IC50 (second compound 0.1 µM): 5.81 nM | IC50 (second compound 0.316 µM): 5.77 nM | IC50 (second compound 1 µM): 4.52 nM | viability, T/C (second compound 0.00316 µM, first compound 0.000949 µM): 96.9% | viability, T/C (second compound 0.00316 µM, first compound 0.003 µM): 67.8% | viability, T/C (second compound 0.00316 µM, first compound 0.00949 µM): 32.1% | viability, T/C (second compound 0.00316 µM, first compound 0.03 µM): 20.6% | viability, T/C (second compound 0.00316 µM, first compound 0.0949 µM): 16.4% | viability, T/C (second compound 0.00316 µM, first compound 0.3 µM): 14.5% | viability, T/C (second compound 0.01 µM, first compound 0.000949 µM): 96.9% | viability, T/C (second compound 0.01 µM, first compound 0.003 µM): 66.3% | viability, T/C (second compound 0.01 µM, first compound 0.00949 µM): 32.1% | viability, T/C (second compound 0.01 µM, first compound 0.03 µM): 19.5% | viability, T/C (second compound 0.01 µM, first compound 0.0949 µM): 18.5% | viability, T/C (second compound 0.01 µM, first compound 0.3 µM): 17.8% | viability, T/C (second compound 0.0316 µM, first compound 0.000949 µM): 91.3% | viability, T/C (second compound 0.0316 µM, first compound 0.003 µM): 61.3% | viability, T/C (second compound 0.0316 µM, first compound 0.00949 µM): 32% | viability, T/C (second compound 0.0316 µM, first compound 0.03 µM): 22% | viability, T/C (second compound 0.0316 µM, first compound 0.0949 µM): 17.4% | viability, T/C (second compound 0.0316 µM, first compound 0.3 µM): 17.1% | viability, T/C (second compound 0.1 µM, first compound 0.000949 µM): 91.8% | viability, T/C (second compound 0.1 µM, first compound 0.003 µM): 74.7% | viability, T/C (second compound 0.1 µM, first compound 0.00949 µM): 32% | viability, T/C (second compound 0.1 µM, first compound 0.03 µM): 14.9% | viability, T/C (second compound 0.1 µM, first compound 0.0949 µM): 17.6% | viability, T/C (second compound 0.1 µM, first compound 0.3 µM): 15.8% | viability, T/C (second compound 0.316 µM, first compound 0.000949 µM): 101% | viability, T/C (second compound 0.316 µM, first compound 0.003 µM): 70.5% | viability, T/C (second compound 0.316 µM, first compound 0.00949 µM): 33.8% | viability, T/C (second compound 0.316 µM, first compound 0.03 µM): 21.8% | viability, T/C (second compound 0.316 µM, first compound 0.0949 µM): 17.8% | viability, T/C (second compound 0.316 µM, first compound 0.3 µM): 15% | viability, T/C (second compound 1 µM, first compound 0.000949 µM): 98.9% | viability, T/C (second compound 1 µM, first compound 0.003 µM): 61.3% | viability, T/C (second compound 1 µM, first compound 0.00949 µM): 29.3% | viability, T/C (second compound 1 µM, first compound 0.03 µM): 18.3% | viability, T/C (second compound 1 µM, first compound 0.0949 µM): 15% | viability, T/C (second compound 1 µM, first compound 0.3 µM): 12.2%
